Laboratory results taken from publication PMC6651024, “LIR Motif-Containing Hyperdisulfide β-Ginkgotide is Cytoprotective, Adaptogenic, and Scaffold-Ready” (Molecules, 2019).
Entries after “also recorded” stand apart in the source; their conditions may differ. Where a SMILES comes first, the peptide text is derived from it. The star is where a group is joined. Cam = NC(=O)C*

Tests used:
SH-SY5Y cells [1] = assay: MTT-based cell proliferation assay under normoxia, SH-SY5Y; set-up: species or system human; conditions: 10 µM peptide, 48 h, triplicates
Text: (§1) In addition, β-gB1 is non-toxic to Vero and BHK (baby hamster kidney) cell lines based on an MTT assay. […] LDH is a cytoplasmic enzyme which is rapidly released into the cell culture medium upon plasma membrane damage and is widely used as a marker for cytotoxicity. Thus, an LDH-release assay measures the level of plasma membrane damage to a cell population.
(§2) Rat cardio-myoblast cells (H9c2) and […] neuron-like SH-SY5Y cells were purchased from ATCC and maintained in DMEM (Dulbecco’s modified eagle medium) medium supplemented with 10% fetal bovine serum (FBS), 10,000 U/mL of penicillin, and 10,000 µg/mL of streptomycin at 37 °C, 5% CO2.
(§3) Cells were cultured in DMEM with or without β-gB1/S-alkylated β-gB1 (β-gB1Alk) for 48 h under normoxia, hypoxia, and hypoxia-reoxygenation conditions. Phosphate-buffered saline (PBS) was used as a vehicle control. After 48 h, MTT (3-(4,5-dimethylthiazol-2-yl)-2,5-diphenyltetrazolium bromide) reagent was added with a final concentration of 0.5 mg/mL, and it was incubated at 37 °C for 2 h. The culture medium was then aspirated, and purple formazan crystals were dissolved in DMSO for colorimetric quantification at 570 nm using a microplate reader with a reference wavelength of 630 nm. […]

pepsin = target: T1, pepsin (Sus scrofa, UniProt P00791); assay: Enzymatic (proteolytic) stability against pepsin; type: in vitro ADME; conditions: 37 °C, MALDI-TOF MS and C18 RP-HPLC
T1 construct: purchased Sigma-Aldrich
T1 sequence (P00791 60-385): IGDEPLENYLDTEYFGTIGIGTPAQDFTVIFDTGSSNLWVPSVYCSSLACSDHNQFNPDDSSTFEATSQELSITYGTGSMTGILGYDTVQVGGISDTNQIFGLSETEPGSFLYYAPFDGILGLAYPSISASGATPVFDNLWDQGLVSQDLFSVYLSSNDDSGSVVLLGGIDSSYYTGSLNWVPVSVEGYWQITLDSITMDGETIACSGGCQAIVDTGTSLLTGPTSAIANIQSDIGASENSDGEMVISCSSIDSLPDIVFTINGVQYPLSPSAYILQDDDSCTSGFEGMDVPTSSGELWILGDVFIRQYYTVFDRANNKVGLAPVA
Protocol: (§4) To assess the proteolytic stability of β-gB1, it was treated with trypsin or pepsin for 6 h. […] Similarly, the S-alkylated β-gB1 was degraded completely by pepsin within 30 min. […] This is in agreement with other plant CRPs that contain a compact structure, whose proteolytic stability was examined up to six hours treatment.
(§5) The folded β-gB1 (28 µg) was added to 100 μL of a 0.1 M ammonium bicarbonate buffer (pH 7.8) containing 800 U/mL of trypsin or 4 mg/mL of pepsin and incubated at 37 °C for 6 h. At each time-point (0, 1, 2, 4, and 6 h), 20 µL of the treated sample was aliquoted and quenched by adding 5 µL of 1 M hydrochloric acid or 0.8 μL of 1 M sodium hydroxide. The reduced β-gB1 was alkylated with iodoacetamide (S-alkylated β-gB1) and used as a control in this study. The reaction mixture was analyzed by MALDI-TOF MS and C18-reversed-phase HPLC to determine its stability.

SH-SY5Y cells [2] = assay: LDH release cytotoxicity assay, SH-SY5Y; type: cell-based, mouse; conditions: 10 µM peptide, 48 h, 37 °C, LDH kit, 450 nm, triplicates
Text: as §1, §2
(§6) An LDH release assay was performed using the CytoSelect™ LDH cytotoxicity assay kit (CBA-241, Cell Biolabs, Inc., San Diego, CA, USA). In brief, cells were cultured in DMEM with or without 10 µM of β-gB1 and S-alkylated β-gB1 (β-gB1Alk) for 48 h at 37 °C and 5% CO2. PBS was used for the vehicle control experiment. The culture medium was transferred and mixed with the LDH assay reagent in a ratio of 9:1. The reaction mixture was incubated at 37 °C for 2 h, and colorimetric quantification was performed using a 450 nm wavelength. The assay was performed in experimental triplicates, and statistical calculations and bar graphs were done using GraphPad Prism software (Version 6.01). […]

H9c2 cells [3] = assay: LDH release cytotoxicity assay, H9c2; type: cell-based, rat; conditions: H9c2, 10 µM peptide, 48 h, 37 °C; LDH kit, 450 nm; triplicates
Text: as §1, §2, §6

trypsin = assay: Enzymatic (proteolytic) stability against trypsin; type: in vitro ADME; conditions: trypsin, 37 °C, five minute treatment; MALDI-TOF MS and C18 RP-HPLC
Protocol: as §4, §5

H9c2 cells [4] = assay: MTT-based cell proliferation assay under normoxia, H9c2; set-up: species or system rat; conditions: H9c2, 10 µM peptide, 48 h, triplicates
Text: as §1, §2, §3

## CC[C@H](C)[C@H](NC(=O)[C@H](CSCC(N)=O)NC(=O)CNC(=O)[C@H](Cc1ccc(O)cc1)NC(=O)[C@H](CCC(=O)O)NC(=O)[C@H](CC(=O)O)NC(=O)[C@H](CC(C)C)NC(=O)[C@H](Cc1ccc(O)cc1)NC(=O)[C@H](CSCC(N)=O)NC(=O)[C@H](CSCC(N)=O)NC(=O)[C@H](CCCNC(=N)N)NC(=O)[C@H](CCCCN)NC(=O)[C@H](CSCC(N)=O)NC(=O)CNC(=O)[C@@H](NC(=O)[C@H](CCC(=O)O)NC(=O)[C@@H](N)Cc1ccc(O)cc1)[C@@H](C)O)C(=O)N[C@@H](CCCNC(=N)N)C(=O)N[C@@H](CSCC(N)=O)C(=O)N[C@@H](CSCC(N)=O)C(=O)O [S-alkylated β-gB1, reference compound] (H-YETGC(Cam)KRC(Cam)C(Cam)YLDEYGC(Cam)IRC(Cam)C(Cam)-OH)
SH-SY5Y cells [1]
  Cell viability (growth or death) under normoxia: No change in cell viability; also recorded: no significant effect on the growth or death
pepsin
  Time to complete degradation by pepsin: ≤ 30 min
SH-SY5Y cells [2]
  Cytotoxicity / cell-membrane damage by LDH release: no significant cytotoxicity or cell-membrane damaging effects
H9c2 cells [3]
  Cytotoxicity / cell-membrane damage by LDH release: no significant cytotoxicity or cell-membrane damaging effects
trypsin
  Degradation by trypsin after five minute treatment: completely degraded
H9c2 cells [4]
  Cell viability (growth or death) under normoxia: No change in cell viability; also recorded: no significant effect on the growth or death
